Where two headings read alike, the source gives them in different places.
Columns and labels:
CYP1A2 = test: CYP induction, cryopreserved human liver cells; assay type: in vitro ADME; conditions: 0.0500, 0.500, 5.00 µM; three donors
[1] = test system: hematological tumor cells; test: Proliferation, MTT or Alamar Blue; assay type: cell-based; conditions: Homo sapiens
CYP2C19 = target: T1, CYP2C19 (Homo sapiens, UniProt P33261); test: CYP inhibition, human liver microsomes; assay type: in vitro ADME
T1 construct: human liver microsomal cytochrome P450 isoenzymes; from tissue; host or cells: human liver microsomes

HDAC6 = HDAC6 (Homo sapiens, UniProt Q9UBN7); test: HDAC enzyme activity in vitro; assay type: biochemical
[2] = Safety pharmacology, CNS and respiratory; assay type: in vivo, rats; conditions: 30 and 90 mg/kg i.v.
Protocol: In the 1.2 and 3.6 mg/kg groups, transient increases in heart rate were observed, and in the 3.6 mg/kg group, a transient and reversible prolongation of QT interval (9.6%) was also noted. Additionally, there were no significant effects observed on other qualitative and quantitative ECG parameters or blood pressure in the dogs. […] In the 90 mg/kg group, reduced locomotor activity and decreased standing frequency were also observed, but these effects returned to baseline after 24 hours. No significant effects were noted on other neurological behaviors in rats, and no impacts on the respiratory system were observed.

Solubility of the API = assay type: physicochemical
MM1S xenograft = MM1S xenograft mouse model; assay type: in vivo, NOD-SCID mice; conditions: for median survival time: satellite group, death = tumor 1500 mm³
solid tumor cells = test: Proliferation, MTT or Alamar Blue; assay type: cell-based; conditions: Homo sapiens
[3] = test system: human Burkitt lymphoma Daudi; test: Daudi subcutaneous tumor model; assay type: in vivo, NOD/SCID mice; conditions: for average median survival time: satellite group
[4] = test system: diffuse large B-cell lymphoma (DLBCL) cells from patient C; test: Cell apoptosis analysis, primary cells; assay type: cell-based, human; conditions: 5 nM, 48 h
Protocol: (§1) CD138^+, CD38^+, or CD20^+ primary cells were obtained from plasma cell leukemia patients and DLBCL patients who had relapsed after multiple drug therapies. These patient samples were sourced from West China Hospital and had been approved by the clinical ethics committee of West China Hospital of Sichuan University (Chengdu, China). The clinical information of these patients was summarized in Supplementary Table 2. The patient primary cells were cultured in 6-well plates at a density of 1×10^6 cells/mL, and treated with control, PM, panobinostat, Pom and DXM at indicated concentrations for 48 hours. CD138, CD38, and CD20 monoclonal antibodies, Annexin V-APC and 7AAD apoptosis detection kits were used following the manufacturer’s instructions. The apoptosis cells were analyzed by flow cytometry (Thermo, AttuneTMNxT).

[5] = test system: primary MM cells from relapsed patients A and B; test: Cell apoptosis analysis, primary cells; assay type: cell-based, human; conditions: 5 nM, 48 h
Protocol: as §1

KMS-11 = test: Cell viability CCK8; assay type: cell-based; conditions: Homo sapiens; KMS-11, 72 h; no unit in table; read-out: Antiproliferative activity IC50
Protocol: (§2) PM, panobinostat, Pom and DXM were dissolved in DMSO and stored at -20°C freezer. Cells were seeded at a density of 1.0-3.0 × 10^4 cells/well/100 μL in 96-well plates. After overnight incubation, cells were treated with the drug-containing culture medium for 24, 48, or 72 hours, and cell viability was measured using CCK8 (Oriscience, Chengdu, China) at the indicated time points with Biotek Cytation 3 at a wavelength of 450 nm. The IC50 values were calculated using GraphPad Prism 9.4.1, and Calcusyn 2.0 software was employed to calculate the CI values.

AMO1 = test: Cell viability CCK8; assay type: cell-based; conditions: Homo sapiens; AMO1, 72 h; no unit in table; read-out: Antiproliferative activity IC50
Protocol: as §2

OPM2 = test: Cell viability CCK8; assay type: cell-based; conditions: Homo sapiens, OPM-2; OPM2, 72 h; no unit in table; read-out: Antiproliferative activity IC50
Protocol: as §2

MM1R = test: Cell viability CCK8; assay type: cell-based; conditions: Homo sapiens, MM.1R, 72 h, no unit in table, read-out: Antiproliferative activity IC50
Protocol: as §2

SUDHL-4 = test: Cell viability CCK8; assay type: cell-based; conditions: Homo sapiens, SU-DHL-4; SUDHL-4, 72 h; no unit in table; read-out: Antiproliferative activity IC50
Protocol: as §2

MM1S = test: Cell viability CCK8; assay type: cell-based; conditions: Homo sapiens, MM1.S, 72 h, no unit in table (b9: nM), read-out: Antiproliferative activity IC50
Protocol: as §2

Karpas299 = test: Cell viability CCK8; assay type: cell-based; conditions: Homo sapiens, KARPAS-299; Karpas299, 72 h; no unit in table; read-out: Antiproliferative activity IC50
Protocol: as §2

Raji = test: Cell viability CCK8; assay type: cell-based; conditions: Homo sapiens, 72 h, no unit in table, read-out: Antiproliferative activity IC50
Protocol: as §2

Daudi = test: Cell viability CCK8; assay type: cell-based; conditions: Homo sapiens, 72 h, no unit in table, read-out: Antiproliferative activity IC50
Protocol: as §2

ARD = test: Cell viability CCK8; assay type: cell-based; conditions: Homo sapiens, 72 h, no unit in table, read-out: Antiproliferative activity IC50
Protocol: as §2

HDAC9 = HDAC9 (Homo sapiens, UniProt Q9UKV0); test: HDAC enzyme activity in vitro; assay type: biochemical
HDAC7 = HDAC7 (Homo sapiens, UniProt Q8WUI4); test: HDAC enzyme activity in vitro; assay type: biochemical
HDAC1 = HDAC1 (Homo sapiens, UniProt Q13547); test: HDAC enzyme activity in vitro; assay type: biochemical
Sequence of HDAC1 (Q13547 whole entry): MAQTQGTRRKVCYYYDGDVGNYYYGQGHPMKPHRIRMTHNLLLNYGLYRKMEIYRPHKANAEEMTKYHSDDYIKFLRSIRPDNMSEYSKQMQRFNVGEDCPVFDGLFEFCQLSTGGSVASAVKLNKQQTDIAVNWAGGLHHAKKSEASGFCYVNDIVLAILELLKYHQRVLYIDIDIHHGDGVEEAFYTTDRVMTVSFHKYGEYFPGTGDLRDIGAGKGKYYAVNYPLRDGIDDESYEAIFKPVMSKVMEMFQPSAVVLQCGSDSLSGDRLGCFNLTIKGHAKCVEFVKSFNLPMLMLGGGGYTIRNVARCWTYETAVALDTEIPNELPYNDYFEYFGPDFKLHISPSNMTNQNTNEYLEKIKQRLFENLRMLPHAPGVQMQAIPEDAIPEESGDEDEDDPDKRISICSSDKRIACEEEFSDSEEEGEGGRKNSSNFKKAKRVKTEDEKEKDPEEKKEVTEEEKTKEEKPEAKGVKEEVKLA

Sequence of HDAC7 (Q8WUI4 whole entry): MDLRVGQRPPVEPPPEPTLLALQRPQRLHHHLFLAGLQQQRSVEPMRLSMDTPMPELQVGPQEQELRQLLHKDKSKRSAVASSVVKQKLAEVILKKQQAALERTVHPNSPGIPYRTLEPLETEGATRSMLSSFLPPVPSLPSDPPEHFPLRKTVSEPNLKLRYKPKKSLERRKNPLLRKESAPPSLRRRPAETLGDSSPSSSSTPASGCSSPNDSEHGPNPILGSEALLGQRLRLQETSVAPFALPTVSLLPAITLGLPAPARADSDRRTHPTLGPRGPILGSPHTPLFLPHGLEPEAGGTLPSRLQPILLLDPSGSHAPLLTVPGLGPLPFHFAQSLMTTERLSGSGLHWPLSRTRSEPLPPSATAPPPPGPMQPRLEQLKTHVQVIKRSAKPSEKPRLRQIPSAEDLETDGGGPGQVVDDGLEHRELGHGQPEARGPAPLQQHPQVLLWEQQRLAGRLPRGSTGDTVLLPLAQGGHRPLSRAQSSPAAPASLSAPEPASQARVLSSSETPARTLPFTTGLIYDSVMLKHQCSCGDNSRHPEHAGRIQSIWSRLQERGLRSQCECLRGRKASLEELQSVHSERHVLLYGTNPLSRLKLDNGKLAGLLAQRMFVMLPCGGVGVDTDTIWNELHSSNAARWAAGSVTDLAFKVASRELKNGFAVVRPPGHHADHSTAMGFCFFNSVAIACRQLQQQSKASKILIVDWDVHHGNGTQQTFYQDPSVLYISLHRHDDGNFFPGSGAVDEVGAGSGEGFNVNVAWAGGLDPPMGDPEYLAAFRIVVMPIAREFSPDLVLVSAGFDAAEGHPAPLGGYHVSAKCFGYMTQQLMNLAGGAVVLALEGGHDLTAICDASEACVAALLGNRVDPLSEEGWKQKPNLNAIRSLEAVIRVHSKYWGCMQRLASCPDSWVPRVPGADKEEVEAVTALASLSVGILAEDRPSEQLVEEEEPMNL
Sequence of HDAC6 (Q9UBN7 whole entry): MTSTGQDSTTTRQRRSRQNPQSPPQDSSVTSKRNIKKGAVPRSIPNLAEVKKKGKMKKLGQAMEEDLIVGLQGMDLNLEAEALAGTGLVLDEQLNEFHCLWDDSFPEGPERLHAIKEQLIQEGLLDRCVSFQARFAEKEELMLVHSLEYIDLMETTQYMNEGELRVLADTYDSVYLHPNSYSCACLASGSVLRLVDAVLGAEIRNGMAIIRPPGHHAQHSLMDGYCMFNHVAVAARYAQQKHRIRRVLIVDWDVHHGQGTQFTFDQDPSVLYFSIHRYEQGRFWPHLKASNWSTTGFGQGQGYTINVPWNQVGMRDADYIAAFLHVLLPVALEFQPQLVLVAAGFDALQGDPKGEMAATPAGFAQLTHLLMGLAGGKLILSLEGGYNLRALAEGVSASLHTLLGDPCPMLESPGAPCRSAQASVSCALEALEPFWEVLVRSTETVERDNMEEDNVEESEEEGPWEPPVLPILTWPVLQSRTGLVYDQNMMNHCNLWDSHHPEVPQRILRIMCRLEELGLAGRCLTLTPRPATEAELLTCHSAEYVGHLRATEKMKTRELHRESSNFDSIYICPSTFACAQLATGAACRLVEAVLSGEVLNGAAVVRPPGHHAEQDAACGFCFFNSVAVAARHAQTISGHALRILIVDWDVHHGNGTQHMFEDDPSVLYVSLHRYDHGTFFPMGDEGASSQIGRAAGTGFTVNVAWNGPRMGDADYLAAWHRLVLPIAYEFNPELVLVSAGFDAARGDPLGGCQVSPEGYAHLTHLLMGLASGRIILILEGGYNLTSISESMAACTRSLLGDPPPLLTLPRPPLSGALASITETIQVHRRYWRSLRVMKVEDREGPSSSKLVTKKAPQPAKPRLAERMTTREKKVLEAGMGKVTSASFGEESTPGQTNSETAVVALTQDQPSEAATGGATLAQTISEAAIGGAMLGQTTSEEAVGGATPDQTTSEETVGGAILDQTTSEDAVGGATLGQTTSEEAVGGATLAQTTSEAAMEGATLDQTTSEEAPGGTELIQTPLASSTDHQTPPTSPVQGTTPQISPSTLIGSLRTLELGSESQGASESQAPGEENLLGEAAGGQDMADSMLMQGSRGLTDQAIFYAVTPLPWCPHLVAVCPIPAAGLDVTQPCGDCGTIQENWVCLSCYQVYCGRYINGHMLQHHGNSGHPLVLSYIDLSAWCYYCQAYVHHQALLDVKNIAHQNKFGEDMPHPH
T1 sequence (P33261 whole entry): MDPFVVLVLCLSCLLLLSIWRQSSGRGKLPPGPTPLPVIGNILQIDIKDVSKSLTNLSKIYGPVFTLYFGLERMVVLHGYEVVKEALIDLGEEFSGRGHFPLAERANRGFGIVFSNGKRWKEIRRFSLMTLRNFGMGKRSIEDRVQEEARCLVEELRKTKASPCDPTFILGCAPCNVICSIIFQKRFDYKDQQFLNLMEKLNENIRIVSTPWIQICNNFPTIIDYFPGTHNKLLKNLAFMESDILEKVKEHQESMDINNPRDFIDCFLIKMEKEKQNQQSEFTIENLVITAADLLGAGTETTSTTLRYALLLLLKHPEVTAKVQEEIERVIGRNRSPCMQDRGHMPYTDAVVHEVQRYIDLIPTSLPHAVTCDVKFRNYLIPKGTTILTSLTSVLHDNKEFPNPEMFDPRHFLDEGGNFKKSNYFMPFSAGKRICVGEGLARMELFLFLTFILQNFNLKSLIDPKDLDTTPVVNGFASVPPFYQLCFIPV
Sequence of HDAC9 (Q9UKV0 whole entry): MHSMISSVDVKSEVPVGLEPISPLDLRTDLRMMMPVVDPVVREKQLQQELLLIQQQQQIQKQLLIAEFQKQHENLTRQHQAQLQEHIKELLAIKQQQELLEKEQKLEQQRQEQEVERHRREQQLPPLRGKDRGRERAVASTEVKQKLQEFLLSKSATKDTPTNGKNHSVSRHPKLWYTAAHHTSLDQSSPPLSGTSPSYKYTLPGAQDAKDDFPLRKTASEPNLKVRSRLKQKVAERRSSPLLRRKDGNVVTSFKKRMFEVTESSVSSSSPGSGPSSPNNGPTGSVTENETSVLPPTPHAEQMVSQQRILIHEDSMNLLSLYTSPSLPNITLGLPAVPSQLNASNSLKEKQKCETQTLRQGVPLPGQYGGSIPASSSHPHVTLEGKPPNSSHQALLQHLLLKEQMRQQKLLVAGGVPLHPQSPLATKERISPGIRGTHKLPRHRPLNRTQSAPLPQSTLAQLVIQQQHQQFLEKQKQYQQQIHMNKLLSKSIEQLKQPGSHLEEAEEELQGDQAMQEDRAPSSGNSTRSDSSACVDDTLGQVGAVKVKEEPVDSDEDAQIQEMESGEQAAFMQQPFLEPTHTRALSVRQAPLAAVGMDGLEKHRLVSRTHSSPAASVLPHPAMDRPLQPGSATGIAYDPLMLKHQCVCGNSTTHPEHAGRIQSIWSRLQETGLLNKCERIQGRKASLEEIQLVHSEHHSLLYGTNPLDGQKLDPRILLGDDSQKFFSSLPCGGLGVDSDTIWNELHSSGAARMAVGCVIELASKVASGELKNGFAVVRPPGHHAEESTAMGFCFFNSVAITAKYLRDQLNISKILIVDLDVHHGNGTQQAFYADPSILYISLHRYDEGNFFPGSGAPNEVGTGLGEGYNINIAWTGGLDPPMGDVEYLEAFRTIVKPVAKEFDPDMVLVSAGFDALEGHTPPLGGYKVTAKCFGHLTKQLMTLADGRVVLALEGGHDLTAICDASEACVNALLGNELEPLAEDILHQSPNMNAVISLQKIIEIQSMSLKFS

In the case of `CN(Cc1nc2c(N3CCOCC3)nc(-c3ccc(N)cc3)nc2n1C)c1ncc(C(=O)NO)cn1.CS(=O)(=O)O` [PM, 2-(((2-(4-Aminophenyl)-9-methyl-6-(4-morpholinyl)-9H-purine-8-yl)methyl)methylamino)-N-hydroxy-5-pyrimidine-carboxamide Mesylate], the “induction of CYP1A2” value (CYP1A2) is reported as “did not act as an inducer”, the IC50 ([1]; read-out: IC50, hematological tumor cells) is reported as < 10 nM and the IC50 ([1]; some cell lines, read-out: IC50, hematological tumor cell lines) is reported as < 1 nM. The IC50 (CYP2C19) was > 10000 nM, the IC50 (HDAC6) was 11.5 nM and the body temperature [2] was “a decrease in body temperature”. The Solubility (Solubility of the API; 0.1 mol/L hydrochloric acid solution) was “practically insoluble”, the Solubility (Solubility of the API; 0.1 mol/L sodium hydroxide solution) was “very slightly soluble” and the Solubility (Solubility of the API; dimethyl sulfoxide) was “soluble”. For the same molecule, the Solubility (Solubility of the API; dimethylformamide) was “slightly soluble”, the Solubility (Solubility of the API; ethanol, ethyl acetate, or chloroform) was “practically insoluble” and the Solubility (Solubility of the API; methanol) was “very slightly soluble”. The “relative tumor growth rate T/C” value (MM1S xenograft; 2.5 mg/kg) was 49.9%, the tumor inhibition rate (MM1S xenograft; 2.5 mg/kg i.v. three times a week) was 55.67% and the “relative tumor growth rate T/C” value (MM1S xenograft; 5 mg/kg) was 32.0%. The tumor inhibition rate (MM1S xenograft; 5 mg/kg i.v. three times a week) was 64.39%, the “relative tumor growth rate T/C” value (MM1S xenograft; 10 mg/kg) was 21.8% and the tumor inhibition rate (MM1S xenograft; 10 mg/kg i.v. three times a week) was 71.76%. For the same molecule, the “relative tumor growth rate T/C” value (MM1S xenograft; 20 mg/kg) was 18.3%, the tumor inhibition rate (MM1S xenograft; 20 mg/kg i.v. three times a week) was 76.44% and the median survival time (MM1S xenograft; 5 mg/kg) was 29.0 days. The median survival time (MM1S xenograft; 10 mg/kg) was 34.5 days, the IC50 (solid tumor cells; all lines) was < 100 nM and the IC50 (solid tumor cells; most tumor cell lines) was < 50 nM. It also gave a T/C ([3]; 2.5 mg/kg) of 17.75±2.47%, a tumor inhibition rate ([3]; 2.5 mg/kg, mean of two batches) of 82.84 ± 2.18% and a T/C ([3]; 5 mg/kg) of 10.40±2.97%. For the same molecule, the tumor inhibition rate ([3]; 5 mg/kg) was 87.86 ± 2.38%, the T/C ([3]; 10 mg/kg) was 7.35±3.75% and the tumor inhibition rate ([3]; 10 mg/kg) was 90.86 ± 3.84%. The median survival time ([3]; 20 mg/kg, paused day 28, resumed day 35) was 54.4 days, the “average median survival time” value ([3]; 5 mg/kg) was 54.5 ± 5.0 days and the “average median survival time” value ([3]; 10 mg/kg) was 58.5 ± 2.1 days. The apoptosis [4] was 82.1%, the apoptosis ([5]; patient A) was 92.9% and the apoptosis ([5]; patient B) was 82.0%. The IC50 (KMS-11) was 1.99 ± 0.21 nM, the IC50 (AMO1) was 1.78 ± 0.14 nM and the IC50 (OPM2) was 1.78 ± 0.13 nM. For the same molecule, the IC50 (MM1R) was 0.33 ± 0.01 nM, the IC50 (SUDHL-4) was 0.73 ± 0.05 nM and the IC50 (MM1S) was 0.47 ± 0.02 nM. It also gave an IC50 (Karpas299) of 1.16 ± 0.14 nM, an IC50 (Raji) of 1.96 ± 0.18 nM and an IC50 (Daudi) of 0.73 ± 0.51 nM. For the same molecule, the IC50 (ARD) was 0.42 ± 0.04 nM, the IC50 (HDAC9) was 622 nM and the IC50 (HDAC7) was 590 nM. For the same molecule, the IC50 (HDAC1) was 0.81 nM.
